According to PubChem BioAssay AID1963451 (Molecular Pharmacology Branch, DTP, NCI, 2024):
Values joined by “and” are separate entries in the source; they are usually repeats but may differ in a detail not shown here. Equal entries are not always repeated.

System: 521955-158-R6-J3-PDC complex spheroid growth, % test/control
Experiment: Anticancer human tumor 521955-158-R6-J3-PDC patient-derived pancreatic carcinoma cell line growth inhibition [Asc]
Conditions: for viability, T/C: stronger effect = lower value
Method: Multicellular complex tumor spheroid response to apoptosis pathway targeting inhibitors Alrizomadlin, Pelcitoclax, and Dasminapant in combination with a variety of drugs and investigational agents in selected tumor cell lines
The MDM2 inhibitor alrizomadlin, the Bcl-2/Bcl-xL inhibitor pelcitoclax, and the IAPs inhibitor dasminapant were evaluated both individually and in combination with standard of care and investigational anticancer small molecules within a complex spheroid model of solid tumors. . Complex spheroids include a stromal component modeled by human endothelial cells (HUVEC) and fibroblasts modeled by human mesenchymal stem cells (MSCs). The concentration ranges selected for each drug and investigational agent were based upon clinically achievable concentrations if the clinical Cmax of the agent was known.
Compounds. The drugs and investigational agents: alrizomadlin (APG-115; NSC831270), pelcitoclax (APG-1252; NSC835773), dasminapant (APG-1387;NSC834197), TAK-243 (NSC785004), copanlisib (NSC809693), olaparib (NSC753686), talazoparib (NSC767125), cobimetinib (NSC 768068), eltanexor (KPT-8602, NSC 794443), abemaciclib (NSC 768073), sotorasib (NSC818433), adagrasib (NSC 831453), MRTX-1133 (NSC 836407), Iadademestat (ORY1001, NSC 806812), and RMC-4630 (NSC839698), were obtained from the NCI Developmental Therapeutics Program Chemical Repository. The FDA-approved anticancer drug set is available from the Developmental Therapeutics Program at https://dtp.cancer.gov/organization/dscb/obtaining/available plates.htm. […] The stock solutions were prepared in dimethyl sulfoxide (DMSO, Sigma-Aldrich, St. Louis, MO, cat. D2650) at 800-fold the tested concentration and stored at -70 degrees C prior to their use. All drugs and investigational agents were tested over a range starting from a high concentration at or near the clinical Cmax and decreasing in half-log increments. If the clinical Cmax for an agent had not been determined, the highest concentration tested was 10 microM.
The patient-derived cancer (PDC) cell lines include five colon adenocarcinomas: 186277-243-T-J2-PDC, 616215-338-R-J1-PDC, 439559-082-T-J2-PDC, 463943-066-T-J2-PDC, and 519858-162-T-J1-PDC; three pancreatic carcinomas: 323965-272-R-J2-PDC, 521955-158-R6-J3-PDC, and 521955-158-R2-J5-PDC; two uterine sarcomas: 327498-152-R-J2-PDC and 993429-296-R-J1-PDC; two rhabdomyosarcomas: 755483-174-R-J1-PDC and 772245-204-R-J1-PDC; two soft tissue sarcomas: 126254-015-R-J1-PDC and 494315-158-R-J1-PDC; two malignant fibrous histiocytomas: 317291-083-R-J1-PDC and 596521-263-R-J1-PDC; two breast carcinomas: 171881-019-R-J1-PDC and 885512-296-R-J2-PDC; and one ovarian carcinoma: 6556581-035-R-J-PDC were obtained from the NCI PDMR, (https://pdmr.cancer.gov). The established cell lines HSSY-2 synovial sarcoma (RRID:CVCL 8719), SYO-1 synovial sarcoma (RRID:CVCL_7146), MPNST malignant peripheral neural sheath tumor were obtained from the Sloan Kettering Institute. The following established cell lines were purchased from the American Type Culture Collection (ATCC, Manassas, VA), Sor the received from the NCI repository:, PANC-1 pancreatic carcinoma (CRL-1469, RRID:CVCL_0480), OVCAR-5 ovarian carcinoma (RRID:CVCL_1628), OVCAR-8 ovarian carcinoma (RRID:CVCL_1629), , MCF-7 breast carcinoma (CRL-12584, RRID:CVCL_0031), MDA-MB-231 breast carcinoma (CRL-12532, RRID:CVCL_0062), NCI-H1876 small cell lung carcinoma (CRL-5902, RRID:CVCL_1503), NCI-H510A small cell lung carcinoma (HTB-184, RRID:CVCL_1565), NCI-H1417 (CRL-5869, RRID:CVCL_1469), and NCI-H196 small cell lung carcinoma (CRL-5823, RRID:CVCL_1509). Dr. Peter Houghton (Greehey Children's Cancer Research Institute, University of Texas Health Science Center, San Antonio, TX) provided Rh-18 rhabdomyosarcoma (RRID:CVCL_1659). Pooled donor human umbilical vein endothelial cells (HUVEC, Lonza, cat. CC-2519) and human mesenchymal stem cells (hMSC, Lonza, cat. PT-2501) were purchased from Lonza (Walkersville, MD).
Cell Culture. […]
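Also: spheroids exposed to compounds for 7 days.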
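For viability, T/C in this document: 100% = DMSO vehicle control wells.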

COc1c(OCCCN2CCOCC2)ccc2c3n(c(=NC(=O)c4cnc(N)nc4)nc12)CCN3 + CNC(C)C(=O)NC1CN(S(=O)(=O)c2cccc(S(=O)(=O)N3CCC4CCC(C(=O)NC(c5ccccc5)c5ccccc5)N4C(=O)C(NC(=O)C(C)NC)C3)c2)CCC2CCC(C(=O)NC(c3ccccc3)c3ccccc3)N2C1=O
IC50 (curve of first compound, second compound 0.00316 µM): 0.113 µM
IC50 (curve of first compound, second compound 0.01 µM): 0.0675 µM
IC50 (curve of first compound, second compound 0.0316 µM): 0.0693 µM
IC50 (curve of first compound, second compound 0.1 µM): 0.0745 µM
IC50 (curve of first compound, second compound 0.316 µM): 0.0752 µM
IC50 (curve of first compound, second compound 1 µM): 0.0509 µM
viability, T/C (second compound 0.00316 µM, first compound 0.00316 µM): 81.4%
viability, T/C (second compound 0.00316 µM, first compound 0.01 µM): 62.2%
viability, T/C (second compound 0.00316 µM, first compound 0.0316 µM): 60.6%
viability, T/C (second compound 0.00316 µM, first compound 0.1 µM): 55.5%
viability, T/C (second compound 0.00316 µM, first compound 0.316 µM): 41.2%
viability, T/C (second compound 0.00316 µM, first compound 1 µM): 23.8%
viability, T/C (second compound 0.01 µM, first compound 0.00316 µM): 83.7%
viability, T/C (second compound 0.01 µM, first compound 0.01 µM): 67.5%
viability, T/C (second compound 0.01 µM, first compound 0.0316 µM): 54.4%
viability, T/C (second compound 0.01 µM, first compound 0.1 µM): 47%
viability, T/C (second compound 0.01 µM, first compound 0.316 µM): 40.9%
viability, T/C (second compound 0.01 µM, first compound 1 µM): 26.4%
viability, T/C (second compound 0.0316 µM, first compound 0.00316 µM): 80.9%
viability, T/C (second compound 0.0316 µM, first compound 0.01 µM): 63.9%
viability, T/C (second compound 0.0316 µM, first compound 0.0316 µM): 54.4%
viability, T/C (second compound 0.0316 µM, first compound 0.1 µM): 49.7%
viability, T/C (second compound 0.0316 µM, first compound 0.316 µM): 41.9%
viability, T/C (second compound 0.0316 µM, first compound 1 µM): 26.6%
viability, T/C (second compound 0.1 µM, first compound 0.00316 µM): 87.2%
viability, T/C (second compound 0.1 µM, first compound 0.01 µM): 61.9%
viability, T/C (second compound 0.1 µM, first compound 0.0316 µM): 59.5%
viability, T/C (second compound 0.1 µM, first compound 0.1 µM): 50%
viability, T/C (second compound 0.1 µM, first compound 0.316 µM): 38.4%
viability, T/C (second compound 0.1 µM, first compound 1 µM): 27.7%
viability, T/C (second compound 0.316 µM, first compound 0.00316 µM): 68.9%
viability, T/C (second compound 0.316 µM, first compound 0.01 µM): 66.6%
viability, T/C (second compound 0.316 µM, first compound 0.0316 µM): 52.5%
viability, T/C (second compound 0.316 µM, first compound 0.1 µM): 48.5%
viability, T/C (second compound 0.316 µM, first compound 0.316 µM): 40.5%
viability, T/C (second compound 0.316 µM, first compound 1 µM): 24.9%
viability, T/C (second compound 1 µM, first compound 0.00316 µM): 77.1%
viability, T/C (second compound 1 µM, first compound 0.01 µM): 56.4%
viability, T/C (second compound 1 µM, first compound 0.0316 µM): 53%
viability, T/C (second compound 1 µM, first compound 0.1 µM): 49.1%
viability, T/C (second compound 1 µM, first compound 0.316 µM): 37.2%
viability, T/C (second compound 1 µM, first compound 1 µM): 24.3%

NC1CCC(NC2CC2c2ccccc2)CC1 (centres undefined)
viability, T/C (compound 0.000316 µM): 104% and 94% and 98.2%
viability, T/C (compound 0.001 µM): 124% and 120% and 99.5%
viability, T/C (compound 0.00316 µM): 136% and 105% and 97.8%
viability, T/C (compound 0.01 µM): 128% and 117% and 109%
viability, T/C (compound 0.0316 µM): 128% and 103% and 93.2%
viability, T/C (compound 0.1 µM): 117% and 99.7% and 89.2%
IC50 (curve of compound): > 0.1 µM
